Like-named read-outs stand apart in the source and are kept apart here.
Legend:
[1] = molecular target: Der p 1 (Dermatophagoides pteronyssinus (European house dust mite), UniProt P08176); experiment: Der p 1 enzyme activity assay (FRET fluorogenic substrate); type: biochemical
[2] = system: Brown Norway rats sensitized to HDM allergens; experiment: Allergen challenge study in vivo (acute allergic bronchoconstriction); design: species or system rat; conditions: challenge 2 hours after intratracheal dosing (100 μL of a 40 μM solution), P<0.05, Mann-Whitney Rank Sum Test
Method: The studies were performed in male Brown Norway rats (approximate weight 350 g at time of allergen challenge) obtained from Harlan UK Ltd. Each animal was allocated a unique identification number after sensitisation, identified by a waterproof tail mark, and randomly assigned to a treatment group. All studies were conducted in accordance with the Animals (Scientific Procedures) Act 1986, with UK Home Office Guidance on the implementation of the Act and with all applicable Codes of Practice for the care and housing of laboratory animals.
A mixture of HDM allergens was harvested from a laboratory culture of Dermatophagoides pteronyssinus. Allergen dose was standardized according to the Der p 1 content of the mixture as determined by an ELISA measurement referenced against the IUIS standard for Der p 1. […]
On Day 21 of the sensitization and challenge protocol, rats were anaesthetised with pentobarbitone (100 mg/kg, i.p.) and ventilated via a tracheal cannula (approximately 7 mL/kg, 1 Hz) with a mixture of air and oxygen (50:50). […] Ventilation was monitored by a flow transducer (Fleisch, type 0000) in-line with the respiratory pump. […] From these measurements of flow and differential pressure, both airways resistance (RL) and dynamic compliance (Cdyn) were calculated for each respiratory cycle on a digital electronic respiratory analyser (PMS, Mumed Ltd, UK). […]

[3] = Table 1, read-out: Der p 1 IC50
[4] = threshold stated in text, read-out: Der p 1 IC50

Der p 1, sequence (P08176 99-320): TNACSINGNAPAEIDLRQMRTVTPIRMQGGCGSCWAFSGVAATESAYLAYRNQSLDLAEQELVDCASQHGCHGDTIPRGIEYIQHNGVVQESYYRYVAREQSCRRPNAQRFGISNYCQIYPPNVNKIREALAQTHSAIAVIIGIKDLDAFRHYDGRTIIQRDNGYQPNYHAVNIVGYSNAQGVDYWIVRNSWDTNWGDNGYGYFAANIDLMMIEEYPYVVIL

CC(C)[C@H](NC(=O)[C@H](C)NC(=O)[C@@H](NC(=O)c1ccccc1)C(C)(C)C)C(=O)C(=O)NC1CCCCC1 [PVA-026]
IC50 ([1]; Der p 1 IC50): < 20 nM
IC50 [1, 3]: 14 nM
magnitude of second allergen challenge (change in airway resistance) compared to first challenge [2]: significantly reduced

CC(C)[C@H](NC(=O)[C@H](C)NC(=O)[C@@H](NC(=O)c1ccncc1)C(C)(C)C)C(=O)C(=O)NC1CCCCC1 [PVA-038]
IC50 ([1]; Der p 1 IC50): < 20 nM
IC50 [1, 3]: 13.3 nM
magnitude of second allergen challenge (change in airway resistance) compared to first challenge [2]: significantly reduced

CC(C)[C@H](NC(=O)[C@H](C)NC(=O)[C@@H](NC(=O)c1ccccc1)C(C)(C)C)C(=O)C(=O)NCc1ccc(N2CCN(C)CC2)nc1 [PVA-195]
IC50 [1, 4]: < 20 nM

CNC(=O)c1ccc(CNC(=O)C(=O)[C@@H](NC(=O)[C@H](C)NC(=O)[C@@H](NC(=O)c2ccccc2)C(C)(C)C)C(C)C)cc1 [PVA-196]
IC50 [1, 4]: < 20 nM

CNS(=O)(=O)c1ccc(CNC(=O)C(=O)[C@@H](NC(=O)[C@H](C)NC(=O)[C@@H](NC(=O)c2ccccc2)C(C)(C)C)C(C)C)cc1 [PVA-197]
IC50 [1, 4]: < 20 nM

CC(C)[C@H](NC(=O)[C@H](C)NC(=O)[C@H](Cc1ccc(N2CCN(C)CC2)cc1)NC(=O)c1ccccc1)C(=O)C(=O)NCc1ccccc1 [PVA-198]
IC50 [1, 4]: < 200 nM

COC(=O)c1cccc(CNC(=O)C(=O)[C@@H](NC(=O)[C@H](C)NC(=O)[C@@H](NC(=O)c2ccccc2)C(C)(C)C)C(C)C)c1 [PVA-199]
IC50 [1, 4]: < 20 nM

CC(C)[C@H](NC(=O)[C@H](C)NC(=O)[C@@H](NC(=O)c1ccccc1)C(C)(C)C)C(=O)C(=O)NCc1cccc(C(=O)OC(C)(C)C)c1 [PVA-200]
IC50 [1, 4]: < 200 nM

CC(C)[C@H](NC(=O)[C@H](C)NC(=O)[C@@H](NC(=O)c1ccccc1N1CCN(C)CC1)C(C)(C)C)C(=O)C(=O)NCc1ccccc1 [PVA-201]
IC50 [1, 4]: < 200 nM

CC(C)[C@H](NC(=O)[C@H](C)NC(=O)[C@@H](NC(=O)c1ccccc1)C(C)(C)C)C(=O)C(=O)NCc1ccc(C(N)=O)cc1 [PVA-202]
IC50 [1, 4]: < 20 nM

CC(C)[C@H](NC(=O)[C@H](C)NC(=O)[C@@H](NC(=O)c1ccccc1)C(C)(C)C)C(=O)C(=O)NC1CCC1 [PVA-203]
IC50 [1, 4]: < 200 nM

COc1ccc(CNC(=O)C(=O)[C@@H](NC(=O)[C@H](C)NC(=O)[C@@H](NC(=O)c2ccccc2)C(C)(C)C)C(C)C)cc1 [PVA-204]
IC50 [1, 4]: < 20 nM

Cc1ccc(CNC(=O)C(=O)[C@@H](NC(=O)[C@H](C)NC(=O)[C@@H](NC(=O)c2ccccc2)C(C)(C)C)C(C)C)cc1 [PVA-205]
IC50 [1, 4]: < 20 nM

CC(C)[C@H](NC(=O)[C@H](C)NC(=O)[C@@H](N1Cc2ccccc2C1=O)C(C)(C)C)C(=O)C(=O)NCc1ccc(S(N)(=O)=O)cc1 [PVA-206]
IC50 [1, 4]: < 20 nM

CC(C)[C@H](NC(=O)[C@H](C)NC(=O)[C@@H](N1Cc2ccccc2C1=O)C(C)(C)C)C(=O)C(=O)NCc1ccc(C(N)=O)cc1 [PVA-207]
IC50 [1, 4]: < 20 nM

CNS(=O)(=O)c1ccc(CNC(=O)C(=O)[C@@H](NC(=O)[C@H](C)NC(=O)[C@@H](N2Cc3ccccc3C2=O)C(C)(C)C)C(C)C)cc1 [PVA-208]
IC50 ([1]; Der p 1 IC50): < 20 nM

CNC(=O)c1ccc(CNC(=O)C(=O)[C@@H](NC(=O)[C@H](C)NC(=O)[C@@H](N2Cc3ccccc3C2=O)C(C)(C)C)C(C)C)cc1 [PVA-209]
IC50 [1, 4]: < 20 nM

CC(C)[C@H](NC(=O)[C@H](C)NC(=O)[C@@H](N1Cc2ccccc2C1=O)C(C)(C)C)C(=O)C(=O)NCc1ccc(CN(C)C)cc1 [PVA-210]
IC50 [1, 4]: < 20 nM

CC(C)[C@H](NC(=O)[C@H](C)NC(=O)[C@@H](N1Cc2ccccc2C1=O)C(C)(C)C)C(=O)C(=O)NCc1ccc(N2CCN(C)CC2)cc1 [PVA-211]
IC50 [1, 4]: < 20 nM

CC(C)[C@H](NC(=O)[C@H](C)NC(=O)[C@@H](N1Cc2ccccc2C1=O)C(C)(C)C)C(=O)C(=O)NCC(=O)N1CCc2ccccc2C1 [PVA-212]
IC50 [1, 4]: < 20 nM

CC(C)[C@H](NC(=O)[C@H](C)NC(=O)[C@@H](N1Cc2ccccc2C1=O)C(C)(C)C)C(=O)C(=O)NCc1ccc(N2CCN(C)CC2)nc1 [PVA-213]
IC50 [1, 4]: < 20 nM

CC(C)[C@H](NC(=O)[C@H](C)NC(=O)[C@@H](NC(=O)c1ccccc1)C12CC3CC(CC(C3)C1)C2)C(=O)C(=O)NCc1ccc(S(N)(=O)=O)cc1 [PVA-214]
IC50 [1, 4]: < 20 nM

CC(C)[C@H](NC(=O)[C@H](C)NC(=O)[C@@H](NC(=O)c1cccc2ccccc12)C(C)(C)C)C(=O)C(=O)NCc1ccc(S(N)(=O)=O)cc1 [PVA-215]
IC50 [1, 4]: < 20 nM

CC(C)[C@H](NC(=O)[C@H](C)NC(=O)[C@@H](NC(=O)C1CCN(C)CC1)C(C)(C)C)C(=O)C(=O)NCc1ccccc1 [PVA-216]
IC50 [1, 4]: < 20 nM

Reference: patent US8541363B2, “Pyruvamide compounds as inhibitors of dust mite group 1 peptidase allergen and their use” (St George's Hosptial Medical School, priority 2010, dated 2013)
